Test results reported in patent US20180186742A1, “PICOLINAMIDES AS FUNGICIDES” (Dow AgroSciences LLC, priority 2017, published 2018).
Read-outs that look alike come from different tables or passages of the source.

Assays:
Zymoseptoria tritici = experiment: Leaf blotch of wheat (SEPTTR), disease control on wheat seedlings; assay type: in vivo; settings: for pest or weed control at 121.5 g/ha: low volume application at 121.5 g/H; for pest or weed control at 100 ppm: high volume application at 100 ppm
Experimental: Technical grades of materials were dissolved in acetone, which were then mixed with nine volumes of water containing 110 ppm Triton X-100. The fungicide solutions were applied onto wheat seedlings using an automated booth sprayer to run-off. All sprayed plants were allowed to air dry prior to further handling. All fungicides were evaluated using the aforementioned method for their activity vs. all target diseases, unless stated otherwise. Wheat leaf blotch and brown rust activity were also evaluated using track spray applications, in which case the fungicides were formulated as EC formulations, containing 0.1% Trycol 5941 in the spray solutions. Wheat plants (variety Yuma) were grown from seed in a greenhouse in 50% mineral soil/50% soil-less Metro mix until the first leaf was fully emerged, with 7-10 seedlings per pot. These plants were inoculated with an aqueous spore suspension of Zymoseptoria tritici either prior to or after fungicide treatments. After inoculation the plants were kept in 100% relative humidity (one day in a dark dew chamber followed by two to three days in a lighted dew chamber at 20° C.) to permit spores to germinate and infect the leaf. The plants were then transferred to a greenhouse set at 20° C. for disease to develop. When disease symptoms were fully expressed on the 1st leaves of untreated plants, infection levels were assessed on a scale of 0 to 100 percent disease severity. Percent disease control was calculated using the ratio of disease severity on treated plants relative to untreated plants.

Puccinia triticina = experiment: Wheat brown rust (PUCCRT), disease control on wheat seedlings; assay type: in vivo; settings: for pest or weed control at 121.5 g/ha: low volume application at 121.5 g/H; for pest or weed control at 100 ppm: high volume application at 100 ppm
Experimental: Technical grades of materials were dissolved in acetone, which were then mixed with nine volumes of water containing 110 ppm Triton X-100. The fungicide solutions were applied onto wheat seedlings using an automated booth sprayer to run-off. All sprayed plants were allowed to air dry prior to further handling. All fungicides were evaluated using the aforementioned method for their activity vs. all target diseases, unless stated otherwise. Wheat leaf blotch and brown rust activity were also evaluated using track spray applications, in which case the fungicides were formulated as EC formulations, containing 0.1% Trycol 5941 in the spray solutions. Wheat plants (variety Yuma) were grown from seed in a greenhouse in 50% mineral soil/50% soil-less Metro mix until the first leaf was fully emerged, with 7-10 seedlings per pot. These plants were inoculated with an aqueous spore suspension of Puccinia triticina either prior to or after fungicide treatments. After inoculation the plants were kept in a dark dew room at 22° C. with 100% relative humidity overnight to permit spores to germinate and infect the leaf. The plants were then transferred to a greenhouse set at 24° C. for disease to develop. Fungicide formulation, application and disease assessment followed the procedures as described in the Example A.

[1] = 24 h, 1 Day Protectant, read-out: SEPTTR disease control, 1DP, LV activity
[2] = 24 h, 1 Day Protectant, read-out: PUCCRT disease control, 1DP, LV activity
[3] = 72 h, 3 Day Curative, read-out: PUCCRT disease control, 3DC, LV activity
[4] = 24 h, 1 Day Protectant, read-out: SEPTTR disease control, 1DP, HV activity
[5] = 72 h, 3 Day Curative, read-out: SEPTTR disease control, 3DC, HV activity
[6] = 24 h, 1 Day Protectant, read-out: PUCCRT disease control, 1DP, HV activity
[7] = 72 h, 3 Day Curative, read-out: PUCCRT disease control, 3DC, HV activity
[8] = 72 h, 3 Day Curative, read-out: SEPTTR disease control, 3DC, LV activity
[9] = 24 h, 1 Day Protectant, wheat leaf blotch, read-out: SEPTTR 1DP disease control, LV activity
[10] = 72 h, 3 Day Curative, wheat leaf blotch, read-out: SEPTTR 3DC disease control, LV activity
[11] = 24 h, 1 Day Protectant, wheat brown rust, read-out: PUCCRT 1DP disease control, LV activity
[12] = 72 h, 3 Day Curative, wheat brown rust, read-out: PUCCRT 3DC disease control, LV activity

| SMILES | pest or weed control at 121.5 g/ha (Zymoseptoria tritici; [1]) | pest or weed control at 121.5 g/ha (Puccinia triticina; [2]) | pest or weed control at 121.5 g/ha (Puccinia triticina; [3]) | pest or weed control at 100 ppm (Zymoseptoria tritici; [4]) | pest or weed control at 100 ppm (Zymoseptoria tritici; [5]) | pest or weed control at 100 ppm (Puccinia triticina; [6]) | pest or weed control at 100 ppm (Puccinia triticina; [7]) | other results |
| --- | --- | --- | --- | --- | --- | --- | --- | --- |
| COc1ccnc(C(=O)N[C@@H](C)C(=O)O[C@@H](C)[C@H](c2ccc(F)c(C)c2)C(C)C)c1OC(C)=O [Compound 250] | > 80% | > 80% | > 80% |  |  |  |  |  |
| CCC(CC)[C@H](c1ccc(F)cc1C)[C@H](C)OC(=O)[C@H](C)NC(=O)c1nccc(OC)c1O [Compound 117] |  |  |  | > 80% | > 80% | > 80% | < 0% |  |
| COc1ccnc(C(=O)N[C@@H](C)C(=O)O[C@@H](C)[C@@H](c2ccc(C)cc2F)C(C)C)c1O [Compound 332] |  |  |  | < 80% | < 80% | < 80% | < 80% |  |
| COc1ccnc(C(=O)N[C@@H](C)C(=O)O[C@@H](C)[C@H](c2ccccc2)C(C)C)c1OC(C)=O [Compound 165] | > 80% | > 80% | > 80% |  |  |  |  | pest or weed control at 121.5 g/ha (Zymoseptoria tritici; [8]): > 80% |
| COc1cc(F)ccc1[C@H](C1CCC1)[C@H](C)OC(=O)[C@H](C)NC(=O)c1nccc(OC)c1O [Compound 147] |  |  |  | < 0% | < 80% | > 80% | > 80% |  |
| COc1cc(F)ccc1[C@@H](C(C)C)[C@H](C)OC(=O)[C@H](C)NC(=O)c1nccc(OC)c1O [Compound 138] |  |  |  | < 0% | < 0% | > 80% | > 80% |  |
| COc1ccc([C@H](C(C)C)[C@H](C)OC(=O)[C@H](C)NC(=O)c2nccc(OC)c2OCOC(C)=O)c(C)c1 [Compound 260] | > 80% | > 80% | > 80% |  |  |  |  |  |
| COc1cc(F)ccc1[C@H](C(C)C)[C@H](C)OC(=O)[C@H](C)NC(=O)c1nccc(OC)c1O [Compound 148] |  |  |  | < 0% | < 80% | < 80% | > 80% |  |
| COc1ccnc(C(=O)N[C@@H](C)C(=O)O[C@@H](C)[C@H](c2ccccc2F)C(C)C)c1O [Compound 323] |  |  |  | < 80% | > 80% | > 80% | > 80% |  |
| COc1ccnc(C(=O)N[C@@H](C)C(=O)O[C@@H](C)[C@H](c2cccc(C)c2)C(C)C)c1OC(C)=O [Compound 391] |  |  |  |  |  |  |  | pest or weed control at 121.5 g/ha (Zymoseptoria tritici; [9]): < 80%; pest or weed control at 121.5 g/ha (Zymoseptoria tritici; [10]): < 80%; pest or weed control at 121.5 g/ha (Puccinia triticina; [11]): > 80%; pest or weed control at 121.5 g/ha (Puccinia triticina; [12]): < 80% |
| COc1cc(F)ccc1[C@H](C1CCCC1)[C@H](C)OC(=O)[C@H](C)NC(=O)c1nccc(OC)c1O [Compound 144] |  |  |  | < 80% | > 80% | > 80% | > 80% |  |
| CCC(CC)[C@@H](c1ccccc1C)[C@H](C)OC(=O)[C@H](C)NC(=O)c1nccc(OC)c1OC(C)=O [Compound 385] |  |  |  |  |  |  |  | pest or weed control at 121.5 g/ha (Zymoseptoria tritici; [9]): > 80%; pest or weed control at 121.5 g/ha (Zymoseptoria tritici; [10]): > 80%; pest or weed control at 121.5 g/ha (Puccinia triticina; [11]): > 80%; pest or weed control at 121.5 g/ha (Puccinia triticina; [12]): > 80% |
| COc1ccnc(C(=O)N[C@@H](C)C(=O)O[C@@H](C)[C@H](c2ccc(Cl)cc2F)C(C)C)c1OC(C)=O [Compound 389] |  |  |  |  |  |  |  | pest or weed control at 121.5 g/ha (Zymoseptoria tritici; [9]): > 80%; pest or weed control at 121.5 g/ha (Zymoseptoria tritici; [10]): > 80%; pest or weed control at 121.5 g/ha (Puccinia triticina; [11]): > 80%; pest or weed control at 121.5 g/ha (Puccinia triticina; [12]): > 80% |
| COc1ccnc(C(=O)N[C@@H](C)C(=O)OC(C)[C@H](c2ccccc2)C2CCCC2)c1O (stereo partly shown) [Compound 113] |  |  |  | > 80% | > 80% | > 80% | > 80% |  |
| COc1ccnc(C(=O)N[C@@H](C)C(=O)O[C@@H](C)[C@H](c2ccccc2OC(C)C)C(C)C)c1O [Compound 337] |  |  |  | < 80% | < 0% | > 80% | > 80% |  |
| COCCC(=O)Oc1c(OC)ccnc1C(=O)N[C@@H](C)C(=O)O[C@@H](C)[C@H](c1ccc(OC)c(F)c1)C(C)C [Compound 248] | < 80% | < 80% | < 80% |  |  |  |  |  |
| CCC(CC)[C@@H](c1ccccc1)C(C)OC(=O)[C@H](C)NC(=O)c1nccc(OC)c1OCOC(C)=O (stereo partly shown) [Compound 174] | > 80% | > 80% | > 80% |  |  |  |  | pest or weed control at 121.5 g/ha (Zymoseptoria tritici; [8]): > 80% |
| COc1ccnc(C(=O)N[C@@H](C)C(=O)O[C@@H](C)[C@H](c2ccc3c(c2)OCO3)C(C)C)c1O [Compound 334] |  |  |  | < 80% | < 0% | > 80% | > 80% |  |
| CCC(C)[C@H](c1ccc(F)cc1C)[C@H](C)OC(=O)[C@H](C)NC(=O)c1nccc(OC)c1O (stereo partly shown) [Compound 120] |  |  |  | < 0% | < 80% | > 80% | < 0% |  |
| CCC(CC)[C@@H](c1ccccc1)C(C)OC(=O)[C@H](C)NC(=O)c1nccc(OC)c1OC(C)=O (stereo partly shown) [Compound 172] | > 80% | > 80% | > 80% |  |  |  |  | pest or weed control at 121.5 g/ha (Zymoseptoria tritici; [8]): > 80% |
| COc1ccnc(C(=O)N[C@@H](C)C(=O)O[C@@H](C)[C@@H](c2ccccc2)C2CCCC2)c1OCOC(C)=O [Compound 163] | < 80% | > 80% | < 80% |  |  |  |  | pest or weed control at 121.5 g/ha (Zymoseptoria tritici; [8]): > 80% |
| COc1ccc([C@H](C(C)C)[C@H](C)OC(=O)[C@H](C)NC(=O)c2nccc(OC)c2OC(C)=O)cc1F [Compound 252] | < 80% | > 80% | < 80% |  |  |  |  |  |
| COc1ccnc(C(=O)N[C@@H](C)C(=O)O[C@@H](C)[C@H](c2ccc(F)cc2)C2CC2)c1OC(C)=O [Compound 170] | > 80% | > 80% | > 80% |  |  |  |  | pest or weed control at 121.5 g/ha (Zymoseptoria tritici; [8]): > 80% |
| COCCC(=O)Oc1c(OC)ccnc1C(=O)N[C@@H](C)C(=O)O[C@@H](C)[C@H](c1ccc(F)c(C)c1)C(C)C [Compound 246] | > 80% | > 80% | > 80% |  |  |  |  |  |
| COc1ccnc(C(=O)N[C@@H](C)C(=O)O[C@@H](C)[C@@H](c2ccc(C)cc2C)C2CCC2)c1O [Compound 149] |  |  |  | < 80% | > 80% | < 80% | < 80% |  |
| COc1ccnc(C(=O)N[C@@H](C)C(=O)OC(C)[C@H](c2ccccc2)C2CCCC2)c1OC(C)=O (stereo partly shown) [Compound 173] | > 80% | > 80% | < 80% |  |  |  |  | pest or weed control at 121.5 g/ha (Zymoseptoria tritici; [8]): > 80% |
| CCC(C)[C@@H](c1ccc(F)cc1OC)[C@H](C)OC(=O)[C@H](C)NC(=O)c1nccc(OC)c1O (stereo partly shown) [Compound 146] |  |  |  | < 80% | > 80% | > 80% | > 80% |  |
| COc1ccc([C@H](C(C)C)[C@H](C)OC(=O)[C@H](C)NC(=O)c2nccc(OC)c2OC(C)=O)c(C)c1 [Compound 254] | > 80% | > 80% | > 80% |  |  |  |  |  |
